Article PMC5218480 (PLoS ONE, 2017)

System: MV-4-11 cells
Experiment: Gene expression microarray analysis (Affymetrix PrimeView) and GSEA
Format: cell-based, human
Set-up: RFU PODN (11730768_x_at) / Fold change /veh PODN (11730768_x_at) / RFU LINC00158 (11744669_a_at) / Fold change /veh LINC00158 (11744669_a_at) / RFU DUSP10 (11751237_a_at) / Fold change /veh DUSP10 (11751237_a_at) / RFU ID3 (11757404_x_at) / Fold change /veh ID3 (11757404_x_at) / RFU PLEKHG5 (11737974_s_at) / Fold change /veh PLEKHG5 (11737974_s_at) / RFU LRRC4B (11730491_at) / Fold change /veh LRRC4B (11730491_at) / RFU GIMAP4 (11747438_a_at) / Fold change /veh GIMAP4 (11747438_a_at) / RFU KRT8 (11758183_x_at) / Fold change /veh KRT8 (11758183_x_at) / RFU CNN1 (11734310_a_at) / Fold change /veh CNN1 (11734310_a_at) / RFU VPS37D (11726825_at) / Fold change /veh VPS37D (11726825_at) / RFU C10orf10 (11716522_x_at) / Fold change /veh C10orf10 (11716522_x_at) / RFU KIR2DL2 /// KIR2DL4 /// KIR2DL5A /// KIR2DL5B /// KIR2DS1 /// KIR2DS2 /// KIR2DS3 /// KIR2DS4 /// KIR3DL3 /// KIR3DL3 /// KIR3DS1 (11738374_at) / Fold change /veh KIR2DL2 /// KIR2DL4 /// KIR2DL5A /// KIR2DL5B /// KIR2DS1 /// KIR2DS2 /// KIR2DS3 /// KIR2DS4 /// KIR3DL3 /// KIR3DL3 /// KIR3DS1 (11738374_at) / RFU C1QL1 (11718748_at) / Fold change /veh C1QL1 (11718748_at) / RFU TMPRSS4 (11747572_a_at) / Fold change /veh TMPRSS4 (11747572_a_at) / RFU HAMP (11756126_x_at) / Fold change /veh HAMP (11756126_x_at) / RFU RNFT2 (11725882_a_at) / Fold change /veh RNFT2 (11725882_a_at) / RFU NR4A2 (11747474_a_at) / Fold change /veh NR4A2 (11747474_a_at) / RFU ABCC12 (11746883_a_at) / Fold change /veh ABCC12 (11746883_a_at) / RFU TMEM136 (11760407_x_at) / Fold change /veh TMEM136 (11760407_x_at) / RFU CLDN22 /// WWC2 (11732394_at) / Fold change /veh CLDN22 /// WWC2 (11732394_at) / RFU HLA-DPB1 (11760878_x_at) / Fold change /veh HLA-DPB1 (11760878_x_at) / RFU SPINT1 (11716480_a_at) / Fold change /veh SPINT1 (11716480_a_at) / RFU GAP43 (11754022_s_at) / Fold change /veh GAP43 (11754022_s_at) / RFU A4GNT (11735810_at) / Fold change /veh A4GNT (11735810_at) / RFU PRB3 (11715151_x_at) / Fold change /veh PRB3 (11715151_x_at) / RFU TUBB4B (11761932_at) / Fold change /veh TUBB4B (11761932_at) / RFU CAPN14 (11732068_a_at) / Fold change /veh CAPN14 (11732068_a_at) / RFU TMCC2 (11721928_a_at) / Fold change /veh TMCC2 (11721928_a_at) / RFU IRGQ (11745062_a_at) / Fold change /veh IRGQ (11745062_a_at) / RFU FAM174B (11720279_a_at) / Fold change /veh FAM174B (11720279_a_at) / RFU TMPRSS4 (11748680_a_at) / Fold change /veh TMPRSS4 (11748680_a_at) / RFU FAM212B (11763350_a_at) / Fold change /veh FAM212B (11763350_a_at) / RFU PLEKHG5 (11743358_a_at) / Fold change /veh PLEKHG5 (11743358_a_at) / RFU ZSCAN30 (11745921_a_at) / Fold change /veh ZSCAN30 (11745921_a_at) / RFU CMKLR1 (11741424_a_at) / Fold change /veh CMKLR1 (11741424_a_at) / RFU LOC101060620 /// MAPK8IP1 (11723275_at) / Fold change /veh LOC101060620 /// MAPK8IP1 (11723275_at) / RFU SPTSSB (11747773_x_at) / Fold change /veh SPTSSB (11747773_x_at) / RFU PRSS12 (11739890_at) / Fold change /veh PRSS12 (11739890_at) / RFU BIN1 (11741810_x_at) / Fold change /veh BIN1 (11741810_x_at) / RFU WNT11 (11732464_a_at) / Fold change /veh WNT11 (11732464_a_at) / RFU C10orf10 (11716521_a_at) / Fold change /veh C10orf10 (11716521_a_at) / RFU C5orf56 (11738089_at) / Fold change /veh C5orf56 (11738089_at) / RFU CYB561 (11721691_x_at) / Fold change /veh CYB561 (11721691_x_at) / RFU ANKRD19P (11752326_a_at) / Fold change /veh ANKRD19P (11752326_a_at) / RFU OR2T12 /// OR2T33 /// OR2T8 (11738714_s_at) / Fold change /veh OR2T12 /// OR2T33 /// OR2T8 (11738714_s_at) / RFU VCAN (11748164_a_at) / Fold change /veh VCAN (11748164_a_at) / RFU JSRP1 (11732532_at) / Fold change /veh JSRP1 (11732532_at) / RFU KRTAP10-11 (11738290_x_at) / Fold change /veh KRTAP10-11 (11738290_x_at) / RFU MYO3A (11730013_a_at) / Fold change /veh MYO3A (11730013_a_at) / RFU EBF3 (11725865_a_at) / Fold change /veh EBF3 (11725865_a_at) / RFU CAMK2N1 (11719241_x_at) / Fold change /veh CAMK2N1 (11719241_x_at) / RFU C5orf56 (11738088_a_at) / Fold change /veh C5orf56 (11738088_a_at) / RFU OLFML3 (11715873_a_at) / Fold change /veh OLFML3 (11715873_a_at) / RFU LOC100653217 /// NTM (11731650_a_at) / Fold change /veh LOC100653217 /// NTM (11731650_a_at) / RFU MAPK11 (11762145_a_at) / Fold change /veh MAPK11 (11762145_a_at) / RFU FIZ1 (11724087_x_at) / Fold change /veh FIZ1 (11724087_x_at) / RFU OASL (11726364_x_at) / Fold change /veh OASL (11726364_x_at) / RFU SOX15 (11748057_x_at) / Fold change /veh SOX15 (11748057_x_at) / RFU CD79A (11719716_a_at) / Fold change /veh CD79A (11719716_a_at) / RFU HIST1H1D (11736915_at) / Fold change /veh HIST1H1D (11736915_at) / RFU CASKIN2 (11723855_a_at) / Fold change /veh CASKIN2 (11723855_a_at) / RFU LOC730098 (11760151_x_at) / Fold change /veh LOC730098 (11760151_x_at) / RFU OR4N2 (11742367_at) / Fold change /veh OR4N2 (11742367_at) / RFU PRRT2 (11749266_a_at) / Fold change /veh PRRT2 (11749266_a_at) / RFU SNX32 (11753110_a_at) / Fold change /veh SNX32 (11753110_a_at) / RFU CDHR5 (11726645_a_at) / Fold change /veh CDHR5 (11726645_a_at) / RFU RCAN1 (11760418_a_at) / Fold change /veh RCAN1 (11760418_a_at) / RFU FAM167A (11723789_a_at) / Fold change /veh FAM167A (11723789_a_at) / RFU FAM26E (11764081_at) / Fold change /veh FAM26E (11764081_at) / RFU ISYNA1 (11749810_s_at) / Fold change /veh ISYNA1 (11749810_s_at) / RFU ACY1 (11761880_at) / Fold change /veh ACY1 (11761880_at) / RFU 11764098_at / Fold change /veh 11764098_at / RFU SAMD14 (11745864_x_at) / Fold change /veh SAMD14 (11745864_x_at) / RFU NPB (11741838_a_at) / Fold change /veh NPB (11741838_a_at) / RFU TMPRSS6 (11731388_a_at) / Fold change /veh TMPRSS6 (11731388_a_at) / RFU KRTAP10-2 (11738614_at) / Fold change /veh KRTAP10-2 (11738614_at) / RFU ARHGAP8 /// PRR5-ARHGAP8 (11727945_x_at) / Fold change /veh ARHGAP8 /// PRR5-ARHGAP8 (11727945_x_at) / RFU KRTAP5-7 /// NADSYN1 (11734609_at) / Fold change /veh KRTAP5-7 /// NADSYN1 (11734609_at) / RFU RASL12 (11751679_a_at) / Fold change /veh RASL12 (11751679_a_at) / RFU CDKN2B (11736163_a_at) / Fold change /veh CDKN2B (11736163_a_at) / RFU PRF1 (11729649_at) / Fold change /veh PRF1 (11729649_at) / RFU, ZNF638 /// ZNF638-IT1 / Fold change vs veh, ZNF638 /// ZNF638-IT1 / RFU, PANK3 / Fold change vs veh, PANK3 / RFU, SH3YL1 / Fold change vs veh, SH3YL1 / RFU, ZEB2 / Fold change vs veh, ZEB2 / RFU, NRIP1 / Fold change vs veh, NRIP1 / RFU, PTTG1IP / Fold change vs veh, PTTG1IP / RFU, CAPN2 / Fold change vs veh, CAPN2 / RFU, MED14 / Fold change vs veh, MED14 / RFU, SNORA58 / Fold change vs veh, SNORA58 / RFU, C1orf63 / Fold change vs veh, C1orf63 / RFU, LRRFIP1 / Fold change vs veh, LRRFIP1 / RFU, NDUFAF7 / Fold change vs veh, NDUFAF7 / RFU, SLC12A2 / Fold change vs veh, SLC12A2 / RFU, IBTK / Fold change vs veh, IBTK / RFU, ESF1 / Fold change vs veh, ESF1 / Fold change vs veh, TMEM50B / RFU, TAOK1 / Fold change vs veh, TAOK1 / RFU, ACBD3 / Fold change vs veh, ACBD3 / RFU, TMA16 / Fold change vs veh, TMA16 / RFU, RWDD3 / Fold change vs veh, RWDD3 / RFU, BCAT1 / Fold change vs veh, BCAT1 / RFU, EDEM3 / Fold change vs veh, EDEM3 / RFU, TMEM33 / Fold change vs veh, TMEM33 / RFU, WDR75 / Fold change vs veh, WDR75 / RFU, AHCTF1 / Fold change vs veh, AHCTF1 / RFU, TFRC / Fold change vs veh, TFRC / RFU, ZDHHC17 / Fold change vs veh, ZDHHC17 / RFU, NOM1 / Fold change vs veh, NOM1 / RFU, ARL8B / Fold change vs veh, ARL8B / RFU, ZBTB11 / Fold change vs veh, ZBTB11 / RFU, TAMM41 / Fold change vs veh, TAMM41 / RFU, KIAA1704 /// LOC100996395 / Fold change vs veh, KIAA1704 /// LOC100996395 / RFU, ING1 / Fold change vs veh, ING1 / RFU, TRMT61B / Fold change vs veh, TRMT61B / RFU, FUBP3 / Fold change vs veh, FUBP3 / RFU, TP53 / Fold change vs veh, TP53 / RFU, TNKS2 / Fold change vs veh, TNKS2 / RFU, ZFP14 / Fold change vs veh, ZFP14 / RFU, ACTR2 / Fold change vs veh, ACTR2 / RFU, PPP3R1 / Fold change vs veh, PPP3R1 / RFU, PIK3R1 / Fold change vs veh, PIK3R1 / RFU, HNRNPA1 / Fold change vs veh, HNRNPA1 / RFU, RNF170 / Fold change vs veh, RNF170 / RFU, ZNF28 / Fold change vs veh, ZNF28 / RFU, RNGTT / Fold change vs veh, RNGTT / RFU, OGT / Fold change vs veh, OGT / RFU, BRD1 / Fold change vs veh, BRD1 / RFU, MARS / Fold change vs veh, MARS / RFU, ZNF655 / Fold change vs veh, ZNF655 / RFU, FAHD1 / Fold change vs veh, FAHD1 / RFU, BDP1 / Fold change vs veh, BDP1 / RFU, LRRCC1 / Fold change vs veh, LRRCC1 / RFU, ARID1A / Fold change vs veh, ARID1A / RFU, ZNF146 / Fold change vs veh, ZNF146 / RFU, ZNF330 / Fold change vs veh, ZNF330 / RFU, GPN3 / Fold change vs veh, GPN3 / RFU, C9orf123 / Fold change vs veh, C9orf123 / RFU, N4BP2L2 / Fold change vs veh, N4BP2L2 / RFU, ARFIP1 / Fold change vs veh, ARFIP1 / RFU, FAM179B / Fold change vs veh, FAM179B / RFU, BCL10 / Fold change vs veh, BCL10 / RFU, UHRF1BP1L / Fold change vs veh, UHRF1BP1L / RFU, BET1 / Fold change vs veh, BET1 / RFU, CNOT2 / Fold change vs veh, CNOT2 / RFU, ZNF268 / Fold change vs veh, ZNF268 / Fold change vs veh, ZNF507 / RFU, DGCR2 / Fold change vs veh, DGCR2 / RFU, WDSUB1 / Fold change vs veh, WDSUB1 / Fold change vs veh, HSP90B1 /// MIR3652 / RFU, ADSS / Fold change vs veh, ADSS / RFU, GK / Fold change vs veh, GK / RFU, ZNF148 / Fold change vs veh, ZNF148 / RFU, TAF9 / Fold change vs veh, TAF9 / RFU, SLC1A5 / Fold change vs veh, SLC1A5 / RFU, SLMO2 / Fold change vs veh, SLMO2 / RFU, ABCC4 / Fold change vs veh, ABCC4 / RFU, LOC101060439 /// RAP1B / Fold change vs veh, LOC101060439 /// RAP1B / RFU, RFX7 / Fold change vs veh, RFX7 / RFU, GTPBP10 / Fold change vs veh, GTPBP10 / RFU, CNEP1R1 / Fold change vs veh, CNEP1R1 / RFU, BIVM-ERCC5 /// ERCC5 / Fold change vs veh, BIVM-ERCC5 /// ERCC5 / RFU, ILF3 / Fold change vs veh, ILF3 / RFU 11762660_at / Fold change /veh 11762660_at / RFU VCAN (11757783_s_at) / Fold change /veh VCAN (11757783_s_at) / RFU DDX43 (11728927_at) / Fold change /veh DDX43 (11728927_at) / RFU KRT8 (11758188_x_at) / Fold change /veh KRT8 (11758188_x_at) / RFU NKD1 (11759106_at) / Fold change /veh NKD1 (11759106_at) / RFU SRD5A1 (11742802_a_at) / Fold change /veh SRD5A1 (11742802_a_at) / RFU TPSAB1 /// TPSB2 (11721975_s_at) / Fold change /veh TPSAB1 /// TPSB2 (11721975_s_at) / RFU GSTM3 (11746129_a_at) / Fold change /veh GSTM3 (11746129_a_at) / RFU IL23R (11737362_x_at) / Fold change /veh IL23R (11737362_x_at) / RFU TMEM51 (11727254_a_at) / Fold change /veh TMEM51 (11727254_a_at) / RFU PIWIL2 (11732686_x_at) / Fold change /veh PIWIL2 (11732686_x_at) / RFU ORM1 (11744905_x_at) / Fold change /veh ORM1 (11744905_x_at) / RFU CCDC152 (11743942_at) / Fold change /veh CCDC152 (11743942_at) / RFU ECM1 (11717891_a_at) / Fold change /veh ECM1 (11717891_a_at) / RFU IL23R (11748794_a_at) / Fold change /veh IL23R (11748794_a_at) / RFU TNFAIP8L3 (11732012_x_at) / Fold change /veh TNFAIP8L3 (11732012_x_at) / RFU MBOAT4 (11741988_at) / Fold change /veh MBOAT4 (11741988_at) / RFU 11764193_at / Fold change /veh 11764193_at / RFU TMEM53 (11763286_at) / Fold change /veh TMEM53 (11763286_at) / RFU MAGEB2 (11727129_at) / Fold change /veh MAGEB2 (11727129_at) / RFU TMEM200A (11744735_a_at) / Fold change /veh TMEM200A (11744735_a_at) / RFU CCDC152 (11751479_a_at) / Fold change /veh CCDC152 (11751479_a_at) / RFU FAM211A (11726209_a_at) / Fold change /veh FAM211A (11726209_a_at) / RFU RGS16 (11746705_a_at) / Fold change /veh RGS16 (11746705_a_at) / RFU VCAN (11755009_s_at) / Fold change /veh VCAN (11755009_s_at) / RFU RHOB (11743442_s_at) / Fold change /veh RHOB (11743442_s_at) / RFU RGS16 (11720943_a_at) / Fold change /veh RGS16 (11720943_a_at) / RFU RGS16 (11720944_at) / Fold change /veh RGS16 (11720944_at) / RFU, VPS4B / Fold change vs veh, VPS4B / RFU, CREB1 / Fold change vs veh, CREB1 / RFU, DNAJC13 / Fold change vs veh, DNAJC13 / RFU, GNAQ / Fold change vs veh, GNAQ / RFU, CDK5R1 / Fold change vs veh, CDK5R1 / RFU, ZRANB3 / Fold change vs veh, ZRANB3 / RFU, CUL4A / Fold change vs veh, CUL4A / RFU, CCNY / Fold change vs veh, CCNY / RFU, UFL1 / Fold change vs veh, UFL1 / RFU, COG3 / Fold change vs veh, COG3 / RFU, DIAPH2 / Fold change vs veh, DIAPH2 / RFU, SKA2 / Fold change vs veh, SKA2 / RFU, AFF3 / Fold change vs veh, AFF3 / RFU, LMF1 / Fold change vs veh, LMF1 / RFU, IPO11 / Fold change vs veh, IPO11 / RFU, DFFB / Fold change vs veh, DFFB / RFU, FOXP1 / Fold change vs veh, FOXP1 / RFU, CARD8 / Fold change vs veh, CARD8 / RFU, STRN3 / Fold change vs veh, STRN3 / RFU, ADK / Fold change vs veh, ADK / RFU, RASSF2 / Fold change vs veh, RASSF2 / RFU, WIPF1 / Fold change vs veh, WIPF1 / RFU, LARP1B / Fold change vs veh, LARP1B / RFU, RASA1 / Fold change vs veh, RASA1 / RFU, RB1 / Fold change vs veh, RB1 / RFU, PPFIA1 / Fold change vs veh, PPFIA1 / RFU, MAT2A / Fold change vs veh, MAT2A / RFU, CCT5 / Fold change vs veh, CCT5 / RFU, WDR92 / Fold change vs veh, WDR92 / RFU, CUX1 / Fold change vs veh, CUX1 / RFU, TTC7A / Fold change vs veh, TTC7A / RFU, TMEM135 / Fold change vs veh, TMEM135 / RFU, DEPTOR / Fold change vs veh, DEPTOR / RFU, CPM / Fold change vs veh, CPM / RFU, DNAJB6 / Fold change vs veh, DNAJB6 / RFU, CACNA2D3 / Fold change vs veh, CACNA2D3 / RFU, DTX4 / Fold change vs veh, DTX4 / RFU, TFCP2 / Fold change vs veh, TFCP2 / RFU, GMCL1 /// GMCL1P1 / Fold change vs veh, GMCL1 /// GMCL1P1 / RFU, AEBP2 / Fold change vs veh, AEBP2 / RFU, SNHG1 /// SNORD22 /// SNORD25 /// SNORD26 /// SNORD27 /// SNORD28 /// SNORD29 /// SNORD31 / Fold change vs veh, SNHG1 /// SNORD22 /// SNORD25 /// SNORD26 /// SNORD27 /// SNORD28 /// SNORD29 /// SNORD31 / Fold change (Aza/veh), C12orf56 (ProbeSet 11735607_a_at) / Fold change (ACY-1035/veh), C12orf56 (ProbeSet 11735607_a_at) / Fold change (Aza/veh), FGFR1OP (ProbeSet 11751329_s_at) / Fold change (ACY-1035/veh), FGFR1OP (ProbeSet 11751329_s_at) / Fold change (Aza/veh), VPS36 (ProbeSet 11739960_a_at) / Fold change (ACY-1035/veh), VPS36 (ProbeSet 11739960_a_at) / RFU SYPL1 (11715823_x_at) / Fold change /veh SYPL1 (11715823_x_at) / RFU IGFBP7 (11715501_s_at) / Fold change /veh IGFBP7 (11715501_s_at) / RFU REEP3 (11722064_at) / Fold change /veh REEP3 (11722064_at) / RFU IGLL1 (11728026_x_at) / Fold change /veh IGLL1 (11728026_x_at): dose or concentration left out as unconfirmed
Settings: MV-4-11 cells, 48 hours

Nc1ccc(-c2cccs2)cc1NC(=O)c1ccc2c(c1)cc(C1CC1)n2CCN1CCOCC1 [ACY-1035]
Fold change /veh FIZ1 (11724087_x_at): 1.06
